# According to patent US4904666A, “Pyrazolo(3,4-d)pyrimidine compounds, compositions and method of use” (Boehringer Mannheim GmbH, priority 1987, dated 1990):
# Tested on: passively sensitized strip of pulmonary parenchyma (guinea pig)
# Assay: inhibition of antigen-induced constriction of passively sensitized guinea pig pulmonary parenchyma strips in vitro (organ bath)
# Format: cell-based, guinea pig (Pirbright-White)
# Conditions: Cavia porcellus, 20 min; Superfusion; Concentration 10/μM (so in the source); test substance preincubated 20 minutes at 37° C., then ovalbumin constriction; percentage reduction of constriction amplitude vs untreated control constrictions
# Excerpt: Activity of the inventive compounds was shown by the following testing in vitro. […] The method employed was as described herewith:
# Pirbright-White guinea pigs were stunned by a blow to the neck and bled. The lungs were flushed largely free of blood in situ with Krebs' buffer, pH 7.4.
# Then the lung was removed, cut into strips (approx. 20×4×4 mm) and the strips were passively sensitized for one hour at room temperature with a 1:50 dilution of a homologous anti-ovalbumin antiserum and then washed once with Krebs' buffer.
# The antiserum had previously been produced as described by Davies et al., (Quantitative studies on anaphylaxis in guinea pigs passively sensitized with homologous antibody. Inter. Arch. Allergy 41, 648-654 (1971)) in guinea pigs of the same strain by repeated injection of ovalbumin (2×crystallized) with the addition of complete Freund's adjuvant (Until it was used, the antiserum was stored undiluted at -18° C.).
# Then the lung strips were fixed singly with one end to the bottom of 10-milliliter organ baths, and with the upper end to isometric measuring devices for the recording of the constrictions of the lung strips through an amplifier on a plotter. The tenseron was adjusted to 1.2 g weight.
# Then the baths were filled with Krebs' buffer and continually gassed at 37° C. with O2 (95%) and CO2 (5%).
# After a 30-minute equilibration phase, histamine control spasms were produced in order to establish the reactivity of the lung specimens, washed, then the test substance was preincubated for 20 minutes at 37° C., and the ovalbumin constriction was produced.
# The inhibiting action of the compounds according to the invention was expressed as percentage reduction of the constriction amplitude of the "specimens with the test substance" in proportion to the "untreated control constrictions."
row,SMILES,inhibition at 10 µM [%]
1,"OCC(O)Cn1ncc2c(N(Cc3cccc(C(F)(F)F)c3)C3CCCC3)ncnc21 (stereo not shown) [Example 4b, 4-[N--(3-trifluoromethylbenzyl)-cyclopentylamino]-1-(2,3-dihydroxypropyl)-1H--pyrazolo[3,4-d]pyrimidine]",36
2,"Cc1ccc(C)c(CN(c2ncnc3[nH]ncc23)C2CCCC2)c1 [Example 2n, 4-[N--(2,5-dimethylbenzyl)-cyclopentylamino]-1H--pyrazolo[3,4-d]pyrimidine]",32
3,"COc1cccc(CN(c2ncnc3[nH]ncc23)C2CCCC2)c1 [Example 2d, 4-[N--(3-methoxybenzyl)-cyclopentylamino]-1H--pyrazolo[3,4-d]pyrimidine]",36
4,"c1coc(CN(c2ncnc3[nH]ncc23)C2CCCC2)c1 [Example 2o, 4-[N--(2-furylmethyl)-cyclopentylamino]-1H--pyrazolo[3,4-d]pyrimidine]",39
5,"N#Cc1cccc(CN(c2ncnc3[nH]ncc23)C2CCCC2)c1 [Example 2i, 4-[N--(3-cyanobenzyl)-cyclopentylamino]-1H--pyrazolo[3,4-d]pyrimidine]",35
6,"Clc1ccc(CN(c2ncnc3[nH]ncc23)C2CCCC2)cc1Cl [Example 2k, 4-[N--(3,4-dichlorobenzyl)-cyclopentylamino]-1H--pyrazolo[3,4-d]pyrimidine]",32
7,"CCOC(=O)c1cccc(CN(c2ncnc3[nH]ncc23)C2CCCC2)c1 [Example 2g, 4-[N--(3-ethoxycarbonylbenzyl)-cyclopentylamino]-1H--pyrazolo[3,4-d]pyrimidine]",40
8,"Clc1ccc(Cl)c(CN(c2ncnc3[nH]ncc23)C2CCCC2)c1 [Example 2j, 4-[N--(2,5-dichlorobenzyl)-cyclopentylamino] -1H--pyrazolo[3,4-d]pyrimidine]",29
9,"c1csc(CN(c2ncnc3[nH]ncc23)C2CCCC2)c1 [Example 2p, 4-[N--(thiophen-2-ylmethyl)-cyclopentylamino]-1H--pyrazolo[3,4-d]pyrimidine]",37
10,"Cc1ccc(Cl)cc1CN(c1ncnc2[nH]ncc12)C1CCCC1 [Example 2l, 4-[N--(5-chloro-2-methylbenzyl)-cyclopentylamino]-1H--pyrazolo[3,4-d]pyrimidine]",32
